Consider eight compounds from ChEMBL document CHEMBL4219149, “Design and synthesis of triple inhibitors of janus kinase (JAK), histone deacetylase (HDAC) and Heat Shock Protein 90 (HSP90)” (Bioorg Med Chem Lett, 2018).

One experiment addresses Heat shock protein HSP90 (Homo sapiens, UniProt P07900+P08238). The experiment is described as follows: Inhibition of geldanamycin-based probe binding to HSP90 (unknown origin) by fluorescence polarization assay. The experiment is classed as protein assay. (In fluorescence polarisation assays a small probe gives low polarisation when free and higher when bound to something large.)

Another experiment deals with Histone deacetylase 1 (Homo sapiens, UniProt Q13547). The experiment is described as follows: Inhibition of HDAC1 (unknown origin) using Arg-His-Lys-Lys(Ac) as substrate after 2 hrs by fluorescence analysis.
Chain of Histone deacetylase 1 (Q13547 whole entry): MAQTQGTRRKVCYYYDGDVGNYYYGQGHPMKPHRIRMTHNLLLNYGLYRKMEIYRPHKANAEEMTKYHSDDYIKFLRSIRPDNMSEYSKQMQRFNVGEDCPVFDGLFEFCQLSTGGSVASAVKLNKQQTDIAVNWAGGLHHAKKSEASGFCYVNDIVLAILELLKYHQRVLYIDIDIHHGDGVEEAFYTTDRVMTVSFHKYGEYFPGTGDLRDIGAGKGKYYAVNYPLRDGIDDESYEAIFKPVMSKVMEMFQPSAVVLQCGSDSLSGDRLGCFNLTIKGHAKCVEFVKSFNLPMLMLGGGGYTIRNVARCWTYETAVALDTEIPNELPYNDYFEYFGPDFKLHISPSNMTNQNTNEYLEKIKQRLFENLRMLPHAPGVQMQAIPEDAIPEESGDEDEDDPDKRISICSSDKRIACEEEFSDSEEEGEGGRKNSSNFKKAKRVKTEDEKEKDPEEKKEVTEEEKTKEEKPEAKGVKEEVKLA
The target in experiment [1] is T1, Protein deacetylase HDAC6 (Homo sapiens, UniProt Q9UBN7).
T1 sequence (Q9UBN7 whole entry): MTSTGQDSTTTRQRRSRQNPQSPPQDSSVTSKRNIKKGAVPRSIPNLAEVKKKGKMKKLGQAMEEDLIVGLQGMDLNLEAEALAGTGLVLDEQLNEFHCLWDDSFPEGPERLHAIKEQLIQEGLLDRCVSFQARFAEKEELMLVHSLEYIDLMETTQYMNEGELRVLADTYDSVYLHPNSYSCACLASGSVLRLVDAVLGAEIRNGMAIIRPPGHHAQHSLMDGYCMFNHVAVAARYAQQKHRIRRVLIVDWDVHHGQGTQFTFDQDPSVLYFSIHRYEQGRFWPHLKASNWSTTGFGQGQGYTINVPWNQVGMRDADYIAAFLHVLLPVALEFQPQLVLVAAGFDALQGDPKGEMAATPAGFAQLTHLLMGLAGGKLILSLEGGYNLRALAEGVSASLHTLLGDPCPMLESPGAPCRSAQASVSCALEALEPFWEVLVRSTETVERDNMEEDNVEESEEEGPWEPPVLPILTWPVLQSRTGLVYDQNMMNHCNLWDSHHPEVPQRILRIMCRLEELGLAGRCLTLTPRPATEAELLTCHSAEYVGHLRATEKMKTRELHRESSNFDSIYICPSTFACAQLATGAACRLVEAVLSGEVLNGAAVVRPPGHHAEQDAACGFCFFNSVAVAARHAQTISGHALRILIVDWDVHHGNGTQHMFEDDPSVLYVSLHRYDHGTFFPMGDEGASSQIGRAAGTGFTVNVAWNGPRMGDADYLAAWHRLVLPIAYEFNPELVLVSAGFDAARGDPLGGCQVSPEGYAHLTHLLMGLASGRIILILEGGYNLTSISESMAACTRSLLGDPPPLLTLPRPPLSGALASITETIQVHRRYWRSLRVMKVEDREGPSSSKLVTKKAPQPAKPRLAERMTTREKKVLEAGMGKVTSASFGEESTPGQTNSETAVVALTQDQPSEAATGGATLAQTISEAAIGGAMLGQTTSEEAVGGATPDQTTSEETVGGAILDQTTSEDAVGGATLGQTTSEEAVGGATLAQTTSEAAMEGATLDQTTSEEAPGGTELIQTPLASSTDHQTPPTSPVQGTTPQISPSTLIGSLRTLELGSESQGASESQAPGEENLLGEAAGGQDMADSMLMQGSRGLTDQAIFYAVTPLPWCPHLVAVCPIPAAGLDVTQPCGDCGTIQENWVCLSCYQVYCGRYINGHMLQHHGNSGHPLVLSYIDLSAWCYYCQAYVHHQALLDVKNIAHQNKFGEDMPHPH
The experiment is described as follows: Inhibition of HDAC6 (unknown origin) using Arg-His-Lys-Lys(Ac) as substrate after 2 hrs by fluorescence analysis.

Experiment [2] concerns the target Heat shock protein HSP 90-alpha (Homo sapiens, UniProt P07900). The experiment is described as follows: Inhibition of HSP90alpha (unknown origin).
Experiment [3] concerns the target Tyrosine-protein kinase JAK2 (Homo sapiens, UniProt O60674). The experiment is described as follows: Inhibition of human JAK2 using poly[Glu:Tyr] (4:1) as substrate in presence of [gamma33P]-ATP.

A value given as a limit tells only on which side of the number the result lay.

Chain of Tyrosine-protein kinase JAK2 (O60674 whole entry): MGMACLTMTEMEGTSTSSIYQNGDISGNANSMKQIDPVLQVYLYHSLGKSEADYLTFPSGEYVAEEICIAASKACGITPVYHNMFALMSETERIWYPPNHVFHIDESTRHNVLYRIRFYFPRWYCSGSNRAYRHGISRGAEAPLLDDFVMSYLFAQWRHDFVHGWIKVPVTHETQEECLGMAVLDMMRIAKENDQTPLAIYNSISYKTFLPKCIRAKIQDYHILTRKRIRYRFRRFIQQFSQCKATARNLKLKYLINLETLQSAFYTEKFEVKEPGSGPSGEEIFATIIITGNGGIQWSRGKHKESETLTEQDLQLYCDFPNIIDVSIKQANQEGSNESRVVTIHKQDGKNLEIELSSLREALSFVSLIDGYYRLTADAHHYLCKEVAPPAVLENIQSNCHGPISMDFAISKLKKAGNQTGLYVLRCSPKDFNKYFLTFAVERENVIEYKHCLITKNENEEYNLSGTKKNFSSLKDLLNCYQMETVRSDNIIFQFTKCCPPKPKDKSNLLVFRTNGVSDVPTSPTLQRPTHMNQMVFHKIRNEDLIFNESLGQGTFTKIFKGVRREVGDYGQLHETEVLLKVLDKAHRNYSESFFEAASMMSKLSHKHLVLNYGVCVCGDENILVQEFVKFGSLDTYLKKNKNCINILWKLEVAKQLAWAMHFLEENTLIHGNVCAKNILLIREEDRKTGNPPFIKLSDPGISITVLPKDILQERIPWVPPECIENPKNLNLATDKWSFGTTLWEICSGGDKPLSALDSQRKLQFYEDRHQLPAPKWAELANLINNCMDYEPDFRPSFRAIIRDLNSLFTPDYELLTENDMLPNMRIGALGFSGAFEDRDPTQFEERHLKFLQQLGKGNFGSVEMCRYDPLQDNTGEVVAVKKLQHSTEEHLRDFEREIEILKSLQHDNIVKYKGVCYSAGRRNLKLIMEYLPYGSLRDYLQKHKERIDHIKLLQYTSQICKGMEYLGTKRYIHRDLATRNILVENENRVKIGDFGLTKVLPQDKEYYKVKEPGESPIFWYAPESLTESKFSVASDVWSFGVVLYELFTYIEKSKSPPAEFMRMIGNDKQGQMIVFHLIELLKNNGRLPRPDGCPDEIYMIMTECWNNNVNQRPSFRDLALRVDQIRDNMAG

Consider `CCNC(=O)c1cc2c(-c3cccc(OCCCCCn4cc(-c5ncnc6[nH]ccc56)cn4)c3)nc(N)nc2s1`, for which the IC50 (as a rule, the concentration that inhibits the measured activity by half) at Heat shock protein HSP90 was greater than 10 µM.
Regarding `CCNC(=O)c1cc2c(-c3cc(OCCCCCCn4cc(-c5nc(Nc6ccc(NC(=O)CCCCCCC(=O)O)cc6)nc6[nH]ccc56)cn4)c(Cl)cc3Cl)nc(N)nc2s1`, the figures for the half-maximal inhibitory concentration (IC50) (against Histone deacetylase 1; in experiment [1]; in experiment [2]) were greater than 100 µM, 6.3 µM and 20.2 µM, respectively.
For `CCNC(=O)c1cc2c(-c3cc(OCCCCCCn4cc(-c5ncnc6[nH]ccc56)cn4)c(Cl)cc3Cl)nc(N)nc2s1`, the IC50 stood at 0.11 µM on Heat shock protein HSP90 and 1.71 µM in experiment [3].
Turning to `CCNC(=O)c1cc2c(-c3cc(OCCCCCCn4cc(-c5nc(Nc6ccc(NC(=O)CCCCCCC(=O)NO)cc6)nc6[nH]ccc56)cn4)c(Cl)cc3Cl)nc(N)nc2s1`, the IC50 against Histone deacetylase 1 was greater than 100 µM; in experiment [1], 2.82 µM; in experiment [3] it was 14.1 µM; in experiment [2], greater than 100 µM.
In the case of `CCNC(=O)c1cc2c(-c3cccc(OCCCCn4cc(-c5ncnc6[nH]ccc56)cn4)c3)nc(N)nc2s1`, the concentration for half-maximal inhibition (IC50) (on Heat shock protein HSP90; in experiment [3]) was greater than 10 µM throughout.
Regarding `CCNC(=O)c1cc2c(-c3cc(OCCCCCn4cc(-c5ncnc6[nH]ccc56)cn4)c(Cl)cc3Cl)nc(N)nc2s1`, the half-maximal inhibitory concentration (IC50) is 0.4 µM on Heat shock protein HSP90 and 3.45 µM in experiment [3].
On Heat shock protein HSP90, `CCNC(=O)c1cc2c(-c3cccc(OCCCCCCn4cc(-c5ncnc6[nH]ccc56)cn4)c3)nc(N)nc2s1` registered an IC50 greater than 10 µM.
With `CCNC(=O)c1cc2c(-c3cccc(OCCCCCCOc4ccc(Nc5nc(-c6cnn(CCCCCCC(=O)NO)c6)c6cc[nH]c6n5)cc4)c3)nc(N)nc2s1`, the half-maximal inhibitory concentration (IC50) on Histone deacetylase 1 is 2.47 µM; in experiment [1], 0.008 µM; in experiment [3], greater than 100 µM; in experiment [2], greater than 100 µM.
